From patent US20230167088A1, “1-PYRAZINYLPYRAZOLYL-3-OXYALKYL ACIDS AND THEIR DERIVATIVES, AND THEIR USE FOR CONTROL OF UNDESIRED PLANT GROWTH” (BAYER AKTIENGESELLSCHAFT, priority 2020, published 2023) come the findings set out here.

Test [1] concerns STEME. Description: Herbicidal pre-emergence action 2b (doubly sown, 1280 g/ha). The format is in vivo, Stellaria media. The following applies: doubly sown pots, dosage 1280 g/ha, visual scoring after about 3 weeks. In a few lines:
(§1)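 Compounds were sprayed pre-emergence as wettable powders or emulsion concentrates onto soil covering freshly sown weed seeds, two species per pot. Percent activity was judged by eye roughly 3 weeks later versus untreated plants.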

The test system of test [2] is POLCO. As to the kind of experiment: Herbicidal post-emergence action 1a (greenhouse pots, visual rating). It is filed as in vivo, Polygonum convolvulus. The following applies: dosage 320 g/ha, visual rating about 3 weeks after treatment. In a few lines: (§2)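 Visual scoring versus untreated plants (100% = plants dead, 0% = as control) followed roughly 3 weeks in the greenhouse after treatment. Plants grown in sandy loam pots had been sprayed on green parts at the one-leaf stage, 2–3 weeks post-sowing, with aqueous WP/EC preparations containing 0.5% additive, 600 l/ha, at 320 and/or 80 g/ha.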

The subject of test [3] is MATIN. Description: Herbicidal pre-emergence action 2b (doubly sown, 1280 g/ha). The format is in vivo, Matricaria inodora. The following applies: doubly sown pots, dosage 1280 g/ha, visual scoring after about 3 weeks. In a few lines:
as §1

The subject of test [4] is VERPE. Description: Herbicidal pre-emergence action 2a (greenhouse pots, visual scoring). The following applies: dosage 320 g/ha, visual scoring after about 3 weeks vs untreated controls. The format is in vivo, Veronica persica. In a few lines:
(§3)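 Visual percent rating, ~3 weeks after treatment, untreated pots as reference (0% = control-like, 100% = killed). Application: formulated compound on soil surface over seeds, 320 g/ha and/or 80 g/ha.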

For test [5], the system named is POLCO. The test is described as above. The format is in vivo, Polygonum convolvulus. The following applies: dosage 320 g/ha, visual scoring after about 3 weeks vs untreated controls. In short, it runs like this:
as §3

The test system of test [6] is VERPE. As to the kind of experiment: Herbicidal post-emergence action 1a (greenhouse pots, visual rating). It is filed as in vivo, Veronica persica. The following applies: visual rating about 3 weeks after treatment. In short, it runs like this:
as §2

Test [7] has as its system MATIN. Described as above. It is filed as in vivo, Matricaria inodora. The following applies: visual rating about 3 weeks after treatment. In a few lines:
as §2

Test [8] has as its system STEME. Description: Herbicidal post-emergence action 1b (twin sowing, 1280 g/ha). It is filed as in vivo, Stellaria media. The following applies: dosage 1280 g/ha, visual rating about 3 weeks after treatment. In short, it runs like this: (§4)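 Greenhouse weed pairs (mono- with dicotyledonous) were treated 2–3 weeks after sowing, at one leaf, using an aqueous spray at 600 L/ha carrying 0.5% additive. Percent activity, judged by eye against untreated plants, was recorded roughly 3 weeks post-application.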

The subject of the next test is AMARE. As to the kind of experiment: Herbicidal post-emergence action 1a (greenhouse pots, visual rating). It is filed as in vivo, Amaranthus retroflexus. The following applies: visual rating about 3 weeks after treatment. In short, it runs like this: as §2
The test system of the next test is POAAN. As to the kind of experiment: Herbicidal pre-emergence action 2b (doubly sown, 1280 g/ha). It is filed as in vivo, Poa annua. The following applies: doubly sown pots, dosage 1280 g/ha, visual scoring after about 3 weeks. In a few lines:
as §1

For the next test, the system named is SETVI. Description: Herbicidal pre-emergence action 2a (greenhouse pots, visual scoring). The following applies: dosage 320 g/ha, visual scoring after about 3 weeks vs untreated controls. It is filed as in vivo, Setaria viridis. In a few lines:
as §3

The test system of a further test is PHBPU. As to the kind of experiment: Herbicidal post-emergence action 1a (greenhouse pots, visual rating). The format is in vivo, Pharbitis purpurea. The following applies: visual rating about 3 weeks after treatment. In short, it runs like this: as §2
Test [9] concerns MATIN. Description: Herbicidal pre-emergence action 2a (greenhouse pots, visual scoring). It is filed as in vivo, Matricaria inodora. The following applies: dosage 320 g/ha, visual scoring after about 3 weeks vs untreated controls. In short, it runs like this:
as §3

Another test has as its system ECHCG. Description: Herbicidal post-emergence action 1b (twin sowing, 1280 g/ha). The format is in vivo, Echinochloa crus-galli. The following applies: dosage 1280 g/ha, visual rating about 3 weeks after treatment. In a few lines:
as §4

In the case of `COC(=O)[C@@H](C)Oc1nn(-c2cnccn2)c(-c2cncc(F)c2)c1Br` [Example I-39], in the test on STEME [1], the “Pre-emergence action at 1280 g/ha against STEME in %” value was 100%. For the same molecule, in the test on POLCO [2], the “Post-emergence action against POLCO in %” value is reported as 90%. Also, the “Pre-emergence action at 1280 g/ha against MATIN in %” value with MATIN [3] is given as 100%. Also, the “Pre-emergence action against VERPE in %” value in the test on VERPE [4] is recorded as 100%. In addition, the “Pre-emergence action against POLCO in %” value in the test with POLCO [5] worked out at 90%. In addition, the “Post-emergence action against VERPE in %” value in the test on VERPE [6] (dosage 80 g/ha) is on record as 80%; in the test with VERPE [6] (dosage 320 g/ha), 90%. In addition, the “Post-emergence action against MATIN in %” value stood at 80% in the test on MATIN [7] (dosage 80 g/ha) and 90% in the test with MATIN [7] (dosage 320 g/ha). Besides, the “Post-emergence action at 1280 g/ha against STEME in %” value with STEME [8] came to 100%. The “Post-emergence action against AMARE in %” value in the test on AMARE (dosage 320 g/ha) is listed as 80%. Also, the “Pre-emergence action at 1280 g/ha against POAAN in %” value in the test on POAAN came out at 100%. The “Pre-emergence action against SETVI in %” value with SETVI came out at 100%. Further, the “Post-emergence action against PHBPU in %” value in the test with PHBPU (dosage 80 g/ha) turned out to be 80%; in the test with PHBPU (dosage 320 g/ha), 90%. In addition, in the test on MATIN [9], the “Pre-emergence action against MATIN in %” value is given as 90%. The “Post-emergence action at 1280 g/ha against ECHCG in %” value with ECHCG is reported as 100%.
For the molecule `COC(=O)COc1nn(-c2cnccn2)c(-c2ccc(F)nc2)c1Br` [Example I-11], the “Pre-emergence action at 1280 g/ha against STEME in %” value with STEME [1] is 100%. For the same molecule, in the test on POLCO [2], the “Post-emergence action against POLCO in %” value is given as 90%. In the test on MATIN [3], the “Pre-emergence action at 1280 g/ha against MATIN in %” value stood at 90%. Moreover, the “Pre-emergence action against VERPE in %” value in the test with VERPE [4] worked out at 90%. Also, the “Pre-emergence action against POLCO in %” value in the test with POLCO [5] was 90%. The “Post-emergence action against VERPE in %” value in the test with VERPE [6] (dosage 80 g/ha) and in the test on VERPE [6] (dosage 320 g/ha) was 90% in each case. Further, the “Post-emergence action against MATIN in %” value with MATIN [7] (dosage 320 g/ha) came to 80%. For the same molecule, in the test on STEME [8], the “Post-emergence action at 1280 g/ha against STEME in %” value was determined as 90%. The “Post-emergence action against AMARE in %” value in the test on AMARE (dosage 80 g/ha) and in the test with AMARE (dosage 320 g/ha) was 90% throughout. In addition, the “Pre-emergence action at 1280 g/ha against POAAN in %” value in the test on POAAN is 100%. For the same molecule, the “Pre-emergence action against SETVI in %” value with SETVI was 100%. For the same molecule, the “Post-emergence action against PHBPU in %” value in the test with PHBPU (dosage 80 g/ha) and in the test on PHBPU (dosage 320 g/ha) was 80% in each case. The “Pre-emergence action against MATIN in %” value with MATIN [9] was 90%. The “Post-emergence action at 1280 g/ha against ECHCG in %” value in the test with ECHCG stood at 90%.
